From ChEMBL document CHEMBL1144368, “Synthesis of 15R-PGD2: a potential DP2 receptor agonist” (Bioorg Med Chem Lett, 2005)

Tests used:
Type in all cases: functional
[1] = target: T1, Prostaglandin D2 receptor 2 (Homo sapiens) (UniProt Q9Y5Y4); assay: Percentage for DP2 mediated stimulation of actin polymerization in eosinophils was determined at 1 uM; (above control)
T1 sequence (whole entry): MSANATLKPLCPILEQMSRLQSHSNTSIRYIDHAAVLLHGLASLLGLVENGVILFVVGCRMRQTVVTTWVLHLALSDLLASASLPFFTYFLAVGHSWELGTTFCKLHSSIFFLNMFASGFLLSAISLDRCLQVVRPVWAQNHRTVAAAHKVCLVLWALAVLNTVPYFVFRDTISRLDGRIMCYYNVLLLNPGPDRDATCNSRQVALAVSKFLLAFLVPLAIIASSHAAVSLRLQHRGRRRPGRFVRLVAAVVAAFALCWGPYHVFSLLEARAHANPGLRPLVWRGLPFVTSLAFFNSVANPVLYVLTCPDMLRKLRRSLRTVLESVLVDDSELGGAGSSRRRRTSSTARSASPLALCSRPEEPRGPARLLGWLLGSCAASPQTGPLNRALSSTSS

[2] = target: T2, Prostaglandin D2 receptor (Homo sapiens) (UniProt Q13258); assay: Effective concentration for DP1 mediated cAMP formation in platelets was determined at 1 uM
T2 sequence (whole entry): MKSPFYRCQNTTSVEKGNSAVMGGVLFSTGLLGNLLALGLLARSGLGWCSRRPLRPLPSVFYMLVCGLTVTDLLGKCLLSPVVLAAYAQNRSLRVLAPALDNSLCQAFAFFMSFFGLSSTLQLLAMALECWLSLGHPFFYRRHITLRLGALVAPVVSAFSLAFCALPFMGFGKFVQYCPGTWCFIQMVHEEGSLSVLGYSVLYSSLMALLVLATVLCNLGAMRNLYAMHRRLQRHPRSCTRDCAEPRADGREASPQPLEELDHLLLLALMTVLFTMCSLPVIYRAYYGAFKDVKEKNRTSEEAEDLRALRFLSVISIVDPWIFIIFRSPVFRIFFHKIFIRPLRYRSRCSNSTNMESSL

[3] = target: T3, Prostaglandin D2 receptor 2 (Homo sapiens, UniProt Q9Y5Y4); assay: Effective concentration for DP2 mediated stimulation of actin polymerization in eosinophils
T3 sequence (Q9Y5Y4 whole entry): T1 sequence (whole entry)

[4] = target: T3, Prostaglandin D2 receptor 2; assay: Effective concentration DP2 mediated expression of the adhesion molecule CD11b in eosinophils
[5] = target: T2, Prostaglandin D2 receptor (Homo sapiens); assay: Effective concentration for DP1 mediated cAMP formation in platelets

Activity [1] [%]	Activity [2] [pmol]	EC50 [3] [nM]	EC50 [4] [nM]	EC10 [5] [nM]	SMILES
83.8	0.83				CCCCC[C@@H](O)/C=C/[C@H]1C(=O)C[C@H](O)[C@@H]1C/C=C/CCCC(=O)O
		3.8	1.4	> 10000	CCCCC[C@@](C)(O)/C=C/[C@H]1C(=O)C[C@H](O)[C@@H]1C/C=C/CCCC(=O)O
		333	99	2100	CCCCC[C@](C)(O)/C=C/[C@H]1C(=O)C[C@H](O)[C@@H]1C/C=C/CCCC(=O)O
86.2	15.5	13	7	11	CCCCC[C@H](O)/C=C/[C@H]1C(=O)C[C@H](O)[C@@H]1CC=CCCCC(=O)O [[3H]PGD2]
